From publication PMC4157579, “Lysine Acetylation Controls Local Protein Conformation by Influencing Proline Isomerization” (Molecular Cell, 2014)
Ends that are not written are not given here. * marks the point of attachment. pNA = O=[N+]([O-])c1ccc(N*)cc1

System: chymotrypsin
Assay: Chymotrypsin-coupled proline isomerization assay (pNA release)
Assay type: biochemical
Conditions: 10 μl of 7.8 mM pNA peptide per 1 ml, 395 nm, every 0.6 s for 20 s, first 0.6–10.2 s, mean initial rate, n = 4–5
Excerpt: Figure 6 K14ac Promotes P16trans (A) Relative binding ± SEM (n = 2–11) assessed by surface plasmon resonance of purified recombinant Spt7 bromodomain (residues 363–619) to the indicated H3 peptides (11–26). (B) Coomassie-stained gel showing a pull-down experiment, quantified relative to the K18ac peptide, with the indicated H3 peptides and the purified recombinant Spt7 bromodomain (n = 3). (C) A chymotrypsin-coupled assay for proline isomers using synthetic hexamers based on GGKAPF-pNA (unmodified). pNA is released by chymotrypsin cleavage only from the trans-proline-containing peptide. (D) K14ac and substitutions at K14 influence isomerization at A15-P16 and pNA release, expressed as mean initial rate ± SEM (n = 4–5) over the first 0.6–10.2 s of the reaction. (E) Schematic showing how K14ac or the K14R substitution influence A15-P16 conformation. […]
Saccharomyces cerevisiae strains used in this study are shown in Supplemental Experimental Procedures. […] Quantitation was performed using ImageJ software. […] The P16 proline isomerase assay was performed as described ([Shan et al., 1994]) using 10 μl of 7.8 mM pNA peptide (Proteogenix) solution per 1 ml assay reaction and pNA release monitored at 395 nm. […] Sensorgrams, binding curves, and Kd values were analyzed with BIA T100 and T200 evaluation software (GE Healthcare) using a 1:1 binding model. […]

## GGKAPF-pNA [unmodified peptide]
  Initial rate of cleavage (pNA release): comparable to that reported previously in a similar assay
